US4749782A, “Vasopressin compounds” (Smithkline Beckman Corporation, priority 1986, dated 1988)

Biological target: T1, V2 -vasopressin receptors (Rattus norvegicus, UniProt Q00788)
T1 construct: from tissue; host or cells: whole animal (hydropenic rat)
Assay: in vivo diuretic activity in the hydropenic rat
Conditions: measure of V2 antagonism
Procedure: Antagonistic activity at the V2 -vasopressin receptors is determined in a protocol which determines in vivo diuretic activity in the hydropenic rat (ED300 μg/kg). This procedure is described in the literature: F. Stassen et al., 1st International Conference on Diuretics, Miami, FL., March (1984).

T1 sequence (Q00788 whole entry): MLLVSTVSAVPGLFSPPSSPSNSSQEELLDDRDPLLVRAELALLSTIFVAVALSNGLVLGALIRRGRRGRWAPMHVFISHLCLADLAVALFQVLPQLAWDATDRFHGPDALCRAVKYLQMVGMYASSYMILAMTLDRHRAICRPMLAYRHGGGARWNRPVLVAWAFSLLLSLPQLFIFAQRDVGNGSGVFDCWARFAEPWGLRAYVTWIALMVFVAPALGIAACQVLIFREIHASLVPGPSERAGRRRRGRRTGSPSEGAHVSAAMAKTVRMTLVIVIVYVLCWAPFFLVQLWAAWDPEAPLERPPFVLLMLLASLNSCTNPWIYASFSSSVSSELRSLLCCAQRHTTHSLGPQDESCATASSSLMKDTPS

Row | Substance | ED300 [mg/kg]
1 | [1-(β,β-diethyl β-mercaptopropionic acid)-2-(O-ethyl-D-tyrosine)-4-valine-8-arginine-9-desglycine]-vasopressin [Compound B] | 0.0119
2 | [1-(β,β-diethyl-β-mercaptopropionic acid)-2-(O-ethyl-L-tyrosine)-4-valine-8-arginine] vasopressin [Compound C] | 0.1205
3 | [1-(β,β-dimethyl-β-mercaptopropionic acid)-2-(O-ethyl-D-tyrosine)-4-valine-8-arginine]vasopressin [Compound D, reference compound] | 4.95
